# Key:
# Test in all cases: relative viability (nuclei count vs DMSO), 5 days (fraction); higher = more cells survive
# AZD6482 + Luminespib = compound: Cc1cc([C@@H](C)Nc2ccccc2C(=O)O)c2nc(N3CCOCC3)cc(=O)n2c1 [AZD6482] + CCNC(=O)c1noc(-c2cc(C(C)C)c(O)cc2O)c1-c1ccc(CN2CCOCC2)cc1 [Luminespib] (partner 0.01 µM)
# Summary of the method: (§1)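 Cells from lung cancer lines were seeded into 1536-well plates and, one day later, dosed by pin tool. Treatments were either a single drug or a fixed dose of an anchor drug with five library-drug doses (not always all listed) in √10 steps. After 5 days, nuclei were stained in a one-step fixation (final 0.05% Triton X-100, 1% formaldehyde, 1 ug/ml Hoechst) and counted on 4× images, and relative viability is the treated-to-vehicle nuclei ratio, as the median of duplicate plates.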
# AZD6482 + Olaparib = compound: Cc1cc([C@@H](C)Nc2ccccc2C(=O)O)c2nc(N3CCOCC3)cc(=O)n2c1 [AZD6482] + O=C(c1cc(Cc2n[nH]c(=O)c3ccccc23)ccc1F)N1CCN(C(=O)C2CC2)CC1 [Olaparib] (partner 8 µM)
# Summary of the method: as §1
# [1] = compound: COc1cc2nc(N3CCCN(C)CC3)nc(NC3CCN(Cc4ccccc4)CC3)c2cc1OC + O=C(CCCCCCC(=O)Nc1ccccc1)NO [Vorinostat] (partner 1 µM)
# Summary of the method: as §1
# AZD6482 + Linsitinib = compound: Cc1cc([C@@H](C)Nc2ccccc2C(=O)O)c2nc(N3CCOCC3)cc(=O)n2c1 [AZD6482] + C[C@]1(O)C[C@@H](c2nc(-c3ccc4ccc(-c5ccccc5)nc4c3)c3c(N)nccn32)C1 [Linsitinib] (partner 1 µM)
# Summary of the method: as §1
Cell Line,relative viability (AZD6482 + Luminespib; first compound 0.08 µM),relative viability (AZD6482 + Luminespib; first compound 0.253 µM),relative viability (AZD6482 + Luminespib; first compound 0.8 µM),relative viability (AZD6482 + Luminespib; first compound 2.53 µM),relative viability (AZD6482 + Luminespib; first compound 8 µM),relative viability (AZD6482 + Olaparib; first compound 0.08 µM),relative viability (AZD6482 + Olaparib; first compound 0.253 µM),relative viability (AZD6482 + Olaparib; first compound 0.8 µM),relative viability (AZD6482 + Olaparib; first compound 2.53 µM),relative viability (AZD6482 + Olaparib; first compound 8 µM),relative viability ([1]; first compound 0.2 µM),relative viability ([1]; first compound 0.6325 µM),relative viability ([1]; first compound 2 µM),relative viability ([1]; first compound 6.325 µM),relative viability (AZD6482 + Linsitinib; first compound 0.08 µM),relative viability (AZD6482 + Linsitinib; first compound 0.253 µM),relative viability (AZD6482 + Linsitinib; first compound 0.8 µM),relative viability (AZD6482 + Linsitinib; first compound 2.53 µM),relative viability (AZD6482 + Linsitinib; first compound 8 µM)
NCI-H2342,0.67,0.54,0.504,0.391,0.608,0.346,0.368,0.4,0.42,0.329,0.638,0.729,0.792,0.757,,,,,
HCC-15,0.425,0.229,0.275,0.239,0.43,0.692,0.662,0.737,0.697,0.768,0.85,0.884,0.909,0.81,0.803,0.894,0.858,0.812,0.922
A-427,0.974,0.79,0.986,,0.677,0.5,0.718,0.739,0.514,0.66,0.865,0.827,0.882,0.851,1.02,1.1,1.17,0.951,1.1
NCI-H2228,,0.119,0.118,0.115,0.169,0.494,0.546,0.569,0.466,0.569,0.37,0.662,0.54,0.25,0.48,0.38,0.38,0.469,0.428
NCI-H1734,0.194,0.167,0.164,0.163,0.205,0.509,0.538,0.531,0.365,0.509,0.813,0.76,0.778,0.717,0.666,0.589,0.701,0.384,0.554
PC-14,0.156,0.16,0.145,,0.142,0.247,0.337,0.405,0.308,0.36,0.674,0.674,0.625,0.0432,0.93,0.966,1.02,0.675,0.736
NCI-H1915,0.697,0.698,0.824,0.696,0.778,0.266,0.268,0.276,0.236,0.258,0.506,0.426,0.514,0.472,0.982,1.1,1.09,1.03,1.1
NCI-H1666,1,0.942,1.06,0.876,1.21,0.731,0.722,0.777,0.712,0.773,1.08,0.943,0.958,1.06,0.536,0.586,0.63,0.589,0.574
HCC-366,,,,,,0.328,0.342,0.433,0.259,0.282,0.332,0.33,0.254,0.284,0.383,0.438,0.477,0.151,0.141
SK-MES-1,0.416,0.556,0.313,0.269,0.304,0.457,0.598,0.529,0.305,0.336,1.02,1.04,1.22,0.472,0.873,1.01,0.608,0.394,0.393
SW 1573,0.218,0.219,0.246,0.194,0.206,0.478,0.4,0.486,0.401,0.369,0.704,0.574,0.684,0.199,0.66,0.678,0.493,0.443,0.572
NCI-H661,0.959,0.945,0.968,0.635,0.918,0.733,0.857,0.83,0.719,0.729,0.763,0.774,0.833,0.807,0.446,0.422,0.398,,0.37
PC-3 [JPC-3],0.634,0.689,0.655,0.509,0.588,1.02,1.11,1.08,0.801,1.15,0.625,0.926,0.781,0.707,0.911,1.04,1.02,0.787,0.841
NCI-H1623,0.48,0.402,0.472,0.45,0.413,,,,,,,,,,,,,,
Calu-6,,,,,,0.516,0.493,0.533,0.527,0.543,,,,,0.726,0.889,0.89,0.701,0.899
LC-2-ad,0.976,0.954,1.28,0.914,1.12,0.727,0.735,0.795,0.64,0.803,0.679,0.716,0.763,0.693,0.61,0.48,0.605,0.318,0.511
CAL-12T,0.476,0.204,0.338,0.171,0.325,0.746,0.702,0.712,0.595,0.543,0.558,0.626,0.925,0.767,0.711,0.604,0.632,0.273,0.445
RERF-LC-KJ,1.16,1.29,1.27,0.978,0.987,0.787,0.963,0.886,0.963,0.667,0.61,0.704,0.703,0.589,0.757,0.814,0.822,0.764,0.784
NCI-H1650,0.182,0.189,0.204,0.186,0.194,0.652,0.761,0.643,0.736,0.813,0.66,0.656,0.747,0.465,,,,,
BEN,0.399,0.193,0.522,0.177,0.334,0.915,0.934,0.946,0.875,0.816,0.608,0.54,0.636,0.552,0.884,0.93,0.988,0.717,0.85
EMC-BAC-2,1.01,1.05,1.18,0.805,0.787,0.455,0.479,0.523,0.471,0.44,0.431,0.427,0.448,0.508,0.744,0.681,0.781,0.529,0.587

Cell Line,relative viability (AZD6482 + Luminespib; first compound 0.08 µM),relative viability (AZD6482 + Luminespib; first compound 0.253 µM),relative viability (AZD6482 + Luminespib; first compound 0.8 µM),relative viability (AZD6482 + Luminespib; first compound 2.53 µM),relative viability (AZD6482 + Luminespib; first compound 8 µM),relative viability (AZD6482 + Olaparib; first compound 0.08 µM),relative viability (AZD6482 + Olaparib; first compound 0.253 µM),relative viability (AZD6482 + Olaparib; first compound 0.8 µM),relative viability (AZD6482 + Olaparib; first compound 2.53 µM),relative viability (AZD6482 + Olaparib; first compound 8 µM),relative viability ([1]; first compound 0.2 µM),relative viability ([1]; first compound 0.6325 µM),relative viability ([1]; first compound 2 µM),relative viability ([1]; first compound 6.325 µM),relative viability (AZD6482 + Linsitinib; first compound 0.08 µM),relative viability (AZD6482 + Linsitinib; first compound 0.253 µM),relative viability (AZD6482 + Linsitinib; first compound 0.8 µM),relative viability (AZD6482 + Linsitinib; first compound 2.53 µM),relative viability (AZD6482 + Linsitinib; first compound 8 µM)
LU99A,0.323,0.26,0.334,0.237,0.238,0.259,0.273,0.255,0.28,0.24,0.473,0.546,0.517,0.44,0.445,0.44,0.434,0.331,0.361
ABC-1,0.668,0.521,0.438,0.55,0.461,0.602,0.464,0.881,0.801,0.52,0.959,1.23,1.13,0.917,0.611,0.801,0.81,0.521,0.815
NCI-H2170,0.712,0.508,0.697,0.485,0.521,0.536,0.608,0.511,0.542,0.489,0.858,0.765,0.86,0.755,,,,,
NCI-H1299,,,,,,0.995,1.02,1.07,0.992,0.934,,,,,0.907,1.03,1.11,0.803,1.17
EBC-1,,,,,,0.533,0.675,0.637,0.467,0.301,,,,,0.559,0.76,0.788,0.348,0.408
NCI-H2347,0.329,0.231,0.583,0.27,0.281,0.449,0.536,0.496,0.432,0.432,0.712,0.725,0.51,0.504,,0.943,0.949,0.571,0.84
NCI-H1993,0.509,0.711,0.737,0.571,0.616,0.881,0.997,0.95,0.563,0.665,0.778,0.798,0.855,0.661,0.759,0.775,,,0.654
NCI-H322M,0.776,0.472,0.783,0.465,0.496,0.671,0.761,0.749,0.494,0.701,0.838,0.939,0.855,0.868,0.718,0.601,0.707,0.355,0.651
NCI-H838,0.246,0.355,0.265,0.193,0.332,0.631,0.712,0.651,0.433,0.395,0.772,0.695,0.938,0.626,0.805,0.994,0.934,0.614,0.769
HARA,0.58,0.636,0.57,0.627,0.419,0.685,1.01,0.943,0.683,0.519,0.584,0.63,0.515,0.51,0.691,0.974,1.11,,0.775
NCI-H1648,,,,,,0.575,0.823,0.715,,0.638,,0.562,,0.616,,,,,
NCI-H1792,0.373,0.392,0.458,0.19,0.353,0.151,0.345,0.365,0.234,0.138,,,,,0.313,0.41,0.501,0.319,0.271
ChaGo-K-1,0.486,0.526,0.574,0.593,0.501,0.399,0.436,0.42,0.431,0.4,0.784,0.749,0.779,0.717,,,,,
A549,,,,,,0.26,0.33,0.37,,0.315,,,,,0.478,0.347,0.466,,0.432
NCI-H1563,0.504,0.541,0.584,0.478,0.522,,,,,,,,,,1.02,0.951,0.908,0.843,0.759
NCI-H522,1.22,1.07,0.879,0.946,0.88,0.573,0.697,0.634,0.596,0.577,0.803,0.884,0.879,0.676,,,,,
HCC-78,,,,,,0.663,0.641,0.533,0.383,0.416,0.495,0.442,0.462,0.429,0.285,0.209,0.223,0.214,0.236
IA-LM,,,,,,0.982,0.995,1.15,,0.759,0.983,0.876,0.908,0.975,0.861,0.732,0.786,,0.969
NCI-H1703,,,,,,0.342,0.456,0.258,0.133,0.167,,,,,1.01,0.398,0.478,0.249,0.47
SW 900,0.152,0.137,0.153,,0.153,0.678,0.665,0.661,0.623,0.616,0.365,0.713,0.565,0.375,,,,,

# Reference: the supplement of paper PMC10307832
